These results are taken from patent US8652785B2, “Method of screening a modulator of endothelial NO synthase comprising the use of heme binding protein 1” (Sanofi, priority 2008, dated 2014).

A word on the EC50: it is the midpoint of the concentration-response curve. The IC50 is the concentration that inhibits the measured activity by half.

In one assay the test system is eNOS promoter. Kind of assay: eNOS-transcription test (eNOS-promoter luciferase reporter cell line EA.csr03). The following applies: Homo sapiens; EA.csr03 cells; read-out: Cellular EC50 in the eNOS-transcription test. The assay is classed as cell-based. Here is the method:
The EA.csr03 cells are cells of a stable eNOS-promoter luciferase cell line. It was obtained by transfection of EA.hy926 cells with a firefly luciferase reporter construct, with a 3.5 kb fragment of the eNOS-promoter added. Cultivation of these cells was carried out with IMDM with GlutaMAX™ I supplemented with 100 U/ml penicillin, 100 μg/ml streptomycin, 10% FCS and 0.4 mg/ml geneticin as selection antibiotic. The EA.hy926 cells are a stable human cell line, which was obtained by fusion of HUVEC with the human […] cell line A549. This cell line is characterized by expression of specific endothelial cell markers, e.g. the “van-Willebrand factor”. The cells used are an original culture of Cora Jean Edgell of passage 32. The cells were cultivated in IMDM with GlutaMAX™ I supplemented with 100 U/ml penicillin, 100 μg/ml streptomycin, HAT Hybri-Max™ medium additive (hypoxanthine, aminopterin and thymidine) and Biotect protective medium.
For transcription test for eNOS promoter activation, 20 000 cells per well of the reporter cell line EA.csr03 were sown in a white 96-well cell culture plate. After 24 hours, various dilutions of the substance in cell culture medium were prepared starting from DMSO stock solutions and were preincubated for 10 min at 37° C. on a water bath. Then these incubation media (100 μl/well) were added to the cells. After incubation for 18 hours, the cells were washed twice with DPBS (100 μl/well) and luciferase lysis buffer (50 μl/well) was added. After 10 min, the solubilized luciferase-substrate luciferin (100 μl/well) was added to the cell lysates. During the luciferase-catalyzed oxidation of luciferin to oxyluciferin there is release of chemiluminescence. […] The light units released were measured in the Genios microplate reader from Tecan Deutschland (Crailsheim, Germany).
A general note: In a reporter assay the amount or activity of a reporter protein is the signal.

For assay [1], the target named is T1, Mitogen-activated protein kinase 7 (MAPK7) (Homo sapiens, UniProt Q13164).
T1 construct: purchased Invitrogen, Karlsruhe, Germany ProtoArrays v3.0
The assay can be described thus: Protein microarray (ProtoArray) binding, MAPK7. The procedure:
(§1) The protein-microarray experiments were carried out using ProtoArrays® v3.0 (Invitrogen, Karlsruhe, Germany). These were nitrocellulose-coated glass plates, on which approx. 5000 recombinant human proteins, in duplicates, were immobilized.
(§2) In the first step the microarrays were incubated for one hour at 4° C. with a MOPS blocking buffer with 0.1% (v/v) Igepal and 1% (w/v) BSA. Then the arrays with the biotin-labeled eNOS transcription enhancers A012 and A013, sometimes in the presence of the unlabeled substance 9257, were incubated at 4° C. for 90 min without shaking, in various test conditions in a MOPS sample buffer with 1% (v/v) Igepal and 1% (w/v) BSA.
(§3) After washing three times, in each case for 1 min, with pure MOPS sample buffer on ice, they were incubated for 30 min with IRDye®680-labeled streptavidin diluted 1/1000 in MOPS sample buffer away from the light, also on ice. IRDye®680- and IRDye®800-labeled secondary antibodies, which recognize the constant Fc-part of the primary antibodies, were used exclusively for the immunodetection of certain proteins. […] The advantage of this wavelength range is the very good signal-to-noise ratio on account of low intrinsic fluorescence. Detection employs the ODYSSEY™ from LI-COR Biosciences (Bad Homburg, Germany). […]
(§4) These labeling (A) and competition tests (B) were evaluated by quantifying the fluorescence signals.

The target of assay [2] is T2, Transcription factor EB (TFEB) (Homo sapiens, UniProt P19484).
T2 construct: purchased Invitrogen, Karlsruhe, Germany ProtoArrays v3.0
T2 sequence (P19484 1-476): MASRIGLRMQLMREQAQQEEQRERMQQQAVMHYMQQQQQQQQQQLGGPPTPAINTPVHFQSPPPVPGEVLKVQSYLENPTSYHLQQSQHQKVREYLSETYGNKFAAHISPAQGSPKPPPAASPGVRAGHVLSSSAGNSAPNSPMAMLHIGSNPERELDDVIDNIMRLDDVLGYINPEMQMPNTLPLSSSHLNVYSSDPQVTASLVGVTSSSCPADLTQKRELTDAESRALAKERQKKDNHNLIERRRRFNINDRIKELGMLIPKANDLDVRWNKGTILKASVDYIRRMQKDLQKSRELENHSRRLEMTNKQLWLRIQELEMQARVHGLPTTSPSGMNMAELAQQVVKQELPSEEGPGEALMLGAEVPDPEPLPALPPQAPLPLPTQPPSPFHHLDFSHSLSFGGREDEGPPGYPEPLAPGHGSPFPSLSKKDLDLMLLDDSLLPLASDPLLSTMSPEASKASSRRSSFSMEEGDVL
Kind of assay: Protein microarray (ProtoArray) binding, TFEB. The procedure: as §1, §2, §3, §4

Assay [3] has as its target T3, TBP-related Protein 1 (TBPL1) (Homo sapiens, UniProt P62380).
T3 construct: purchased Invitrogen, Karlsruhe, Germany ProtoArrays v3.0
T3 sequence (P62380 1-186): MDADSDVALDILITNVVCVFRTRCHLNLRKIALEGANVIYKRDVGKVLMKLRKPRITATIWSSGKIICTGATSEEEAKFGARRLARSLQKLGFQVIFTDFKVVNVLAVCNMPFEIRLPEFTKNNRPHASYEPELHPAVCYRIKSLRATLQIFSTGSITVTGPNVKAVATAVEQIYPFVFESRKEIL
The assay can be described thus: Protein microarray (ProtoArray) binding, TBPL1. Here is the method: as §1, §2, §3, §4

Assay [4] has as its target T4, AMP-activated protein kinase, catalytic subunit alpha 1 (PRKAA1) (Homo sapiens, UniProt Q13131).
T4 construct: purchased Invitrogen, Karlsruhe, Germany ProtoArrays v3.0
The assay can be described thus: Protein microarray (ProtoArray) binding, PRKAA1. The procedure:
as §1, §2, §3, §4

In assay [5] the target is T5, Phosphoserine aminotransferase 1 (PSAT1) (Homo sapiens, UniProt Q9Y617).
T5 construct: purchased Invitrogen, Karlsruhe, Germany ProtoArrays v3.0
T5 sequence (Q9Y617 1-370): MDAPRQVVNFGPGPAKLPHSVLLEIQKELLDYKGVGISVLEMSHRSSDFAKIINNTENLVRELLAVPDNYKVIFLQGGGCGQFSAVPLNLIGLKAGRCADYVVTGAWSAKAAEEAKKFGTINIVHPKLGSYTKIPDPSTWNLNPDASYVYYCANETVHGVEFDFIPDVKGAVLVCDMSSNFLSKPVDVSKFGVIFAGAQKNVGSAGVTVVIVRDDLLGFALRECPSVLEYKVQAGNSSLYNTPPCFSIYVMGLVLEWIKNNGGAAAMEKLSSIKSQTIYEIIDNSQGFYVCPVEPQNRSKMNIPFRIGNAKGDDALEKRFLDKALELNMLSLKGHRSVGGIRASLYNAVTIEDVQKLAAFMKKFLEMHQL
Kind of assay: Protein microarray (ProtoArray) binding, PSAT1. The procedure:
as §1, §2, §3, §4

Assay [6] deals with T6, Cytidinemonophosphate-N-acetylneuraminic acid-synthetase (CMAS) (Homo sapiens, UniProt Q8NFW8).
T6 construct: purchased Invitrogen, Karlsruhe, Germany ProtoArrays v3.0
Kind of assay: Protein microarray (ProtoArray) binding, CMAS. The procedure:
as §1, §2, §3, §4

For assay [7], the system named is recombinant human proteins on ProtoArrays v3.0. The assay can be described thus: Protein microarray (ProtoArray) labeling and competition, qualitative. The assay is classed as binding. The following applies: substance 100 μM. The procedure: as §1, §2
as §3, with “Germany). With this instrument it is possible to detect both emission wavelengths on one membrane simultaneously.” for “Germany).”

For the next assay, the target named is T7, human Hexahis-HEBP1 (Homo sapiens, UniProt Q9NRV9).
T7 construct: Hexahis (6xHis) (N); made in house; host or cells: E. coli BL21 Star (DE3)
T7 sequence (Q9NRV9 1-189): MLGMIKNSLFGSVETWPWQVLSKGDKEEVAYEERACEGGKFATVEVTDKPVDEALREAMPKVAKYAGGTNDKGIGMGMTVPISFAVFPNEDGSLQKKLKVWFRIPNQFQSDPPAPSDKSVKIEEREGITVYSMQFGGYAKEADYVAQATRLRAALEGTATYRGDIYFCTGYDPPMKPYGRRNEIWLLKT
The assay can be described thus: Binding studies by quenching of tryptophan fluorescence. From the text: For carrying out binding studies with human HEBP1, it is possible to utilize the intrinsic fluorescence of the tryptophan residues at λ=340 nm, using an excitation wavelength of λ=295 nm. The resultant fluorescence can be “quenched” by binding of porphyrins in spatial proximity to the tryptophan residues. This leads to a decrease of intrinsic fluorescence, which therefore provides a measure for the binding of a ligand. In order to optimize the experimental conditions for these quench measurements it was first necessary to evaluate the spectroscopic properties of the recombinant Hexahis-HEBP1.
Next, studies of the binding of hemin and protoporphyrin IX (PPIX) to human Hexahis-HEBP1 in the presence of eNOS transcription enhancers by tryptophan quenching were carried out. Binding studies with human HEBP1 are carried out using the intrinsic fluorescence of tryptophan residues that are contained. The fluorescence occurring at λ=340 nm after excitation with a wavelength of λ=295 nm can be “quenched” through the binding of porphyrins in proximity to the tryptophan residues. The measured fluorescence decreases as a function of the concentration of the ligands. Using nonlinear regression, it is possible to calculate the binding parameters.
Hemin and PPIX at concentrations from 30 nM to 10 μM were added to a buffered HEBP1 solution (500 nM) and after incubation for 10 min the tryptophan fluorescence was measured (FIG. 3). It was not possible to use higher porphyrin concentrations owing to the low solubility in aqueous systems.
The influence of the eNOS-transcription enhancers on tryptophan quenching by hemin was investigated next. In the experiments the recombinant human HEBP1 at a concentration of 500 nM was preincubated on ice for 30 min with the eNOS-substance 9257 versus DMSO-control in a binding buffer (pH 7.4) of HEPES (20 mM), sodium chloride (100 mM) and DTT (1 mM). Black, 96-well plates were used as the reaction vessel. Then hemin or protoporphyrin IX was added at varying concentrations through addition of the 200-fold concentrated DMSO stock solution and incubated for 10 min at room temperature. Finally, the tryptophan fluorescence was measured after previous optimization at λexc=295 nm and λem=340 nm in the Safire^2 microplate reader (Tecan Deutschland, Crailsheim, Germany).
First we investigated whether substance 9257 can quench the tryptophan fluorescence of HEBP1. […] Therefore the binding of 9257 was investigated indirectly through competition with hemin. For this, HEBP1 (500 nM) was preincubated with 9257 (10 μM) on ice, versus DMSO-control. After 30 min the hemin was added at varying concentrations of 0.1-10 μM and it was incubated at room temperature for a further 10 min before measuring the tryptophan fluorescence (FIG. 4).

Where [8] appears, read: B: A012 (100 μM) in the presence of unlabeled substance 9257 (25 μM).
The mark [9] stands for this setting: 0.5 μM HEBP1, ligand 30 nM to 10 μM, 10 min, read-out: IC50 of tryptophan fluorescence quenching.

Where two headings read alike, the source gives them in different places.

T1 sequence (Q13164 whole entry): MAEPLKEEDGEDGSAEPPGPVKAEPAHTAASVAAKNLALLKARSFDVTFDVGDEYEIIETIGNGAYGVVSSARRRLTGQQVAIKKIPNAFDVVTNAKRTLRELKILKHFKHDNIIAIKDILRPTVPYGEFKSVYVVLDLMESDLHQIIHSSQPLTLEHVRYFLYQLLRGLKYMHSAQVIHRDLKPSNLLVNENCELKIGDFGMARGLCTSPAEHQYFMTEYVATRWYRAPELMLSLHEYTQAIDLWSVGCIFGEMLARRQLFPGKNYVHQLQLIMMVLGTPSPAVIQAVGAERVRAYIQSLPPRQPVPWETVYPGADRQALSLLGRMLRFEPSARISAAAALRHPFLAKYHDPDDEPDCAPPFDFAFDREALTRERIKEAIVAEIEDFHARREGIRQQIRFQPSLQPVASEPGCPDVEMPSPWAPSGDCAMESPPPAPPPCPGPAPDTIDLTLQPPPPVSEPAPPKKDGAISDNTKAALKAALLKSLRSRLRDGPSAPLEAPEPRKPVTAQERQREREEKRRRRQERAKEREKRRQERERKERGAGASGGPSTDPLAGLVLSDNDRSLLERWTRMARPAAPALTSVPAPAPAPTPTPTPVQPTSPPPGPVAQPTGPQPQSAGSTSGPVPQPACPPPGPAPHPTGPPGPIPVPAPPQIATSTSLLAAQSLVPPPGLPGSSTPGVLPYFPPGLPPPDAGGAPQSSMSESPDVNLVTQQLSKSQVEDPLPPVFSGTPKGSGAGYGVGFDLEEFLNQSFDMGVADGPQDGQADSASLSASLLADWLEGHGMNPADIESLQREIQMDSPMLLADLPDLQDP
T4 sequence (Q13131 whole entry): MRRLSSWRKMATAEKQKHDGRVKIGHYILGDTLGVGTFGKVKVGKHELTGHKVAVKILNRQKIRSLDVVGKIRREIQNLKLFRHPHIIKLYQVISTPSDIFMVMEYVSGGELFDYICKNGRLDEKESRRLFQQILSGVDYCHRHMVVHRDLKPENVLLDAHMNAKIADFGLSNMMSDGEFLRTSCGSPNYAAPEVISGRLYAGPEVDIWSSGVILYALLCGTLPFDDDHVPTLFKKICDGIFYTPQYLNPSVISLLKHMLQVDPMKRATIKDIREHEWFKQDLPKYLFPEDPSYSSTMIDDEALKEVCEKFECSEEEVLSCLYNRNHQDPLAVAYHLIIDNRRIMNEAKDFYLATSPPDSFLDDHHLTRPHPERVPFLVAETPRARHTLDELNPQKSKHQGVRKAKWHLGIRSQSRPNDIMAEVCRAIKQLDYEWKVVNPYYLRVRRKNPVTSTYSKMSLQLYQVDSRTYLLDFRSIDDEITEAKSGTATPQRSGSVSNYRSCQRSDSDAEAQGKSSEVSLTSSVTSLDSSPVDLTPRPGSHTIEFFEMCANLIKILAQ
T6 sequence (Q8NFW8 whole entry): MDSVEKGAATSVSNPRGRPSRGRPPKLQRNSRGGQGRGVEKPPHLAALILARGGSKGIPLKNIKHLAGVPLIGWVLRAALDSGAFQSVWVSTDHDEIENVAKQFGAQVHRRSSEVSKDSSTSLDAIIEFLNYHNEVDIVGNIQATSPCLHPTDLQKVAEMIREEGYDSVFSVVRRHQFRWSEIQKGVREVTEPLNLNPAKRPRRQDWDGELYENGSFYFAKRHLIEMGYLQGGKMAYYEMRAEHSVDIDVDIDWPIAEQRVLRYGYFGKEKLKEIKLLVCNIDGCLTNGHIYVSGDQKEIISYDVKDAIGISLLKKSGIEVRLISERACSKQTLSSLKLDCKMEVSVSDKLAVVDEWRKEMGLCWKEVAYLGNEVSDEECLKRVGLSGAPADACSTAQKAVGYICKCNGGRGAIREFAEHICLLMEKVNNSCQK

Turning to `O=C(NC1Cc2ccccc2C1)c1ccc(F)cc1` [AVE9488], the EC50 in the assay on eNOS promoter is 3 µM.
Turning to `O=C(CCCC[C@@H]1SC[C@@H]2NC(=O)N[C@@H]21)NCCCCCC(=O)NCCOCCOc1ccc(C(=O)N[C@H]2CCCc3ccccc3C2)cc1` [A012], the “Fluorescence intensity A” value amounted to 4775 in assay [1] (A: A012 (100 μM)); 4987 in assay [2] (A: A012 (100 μM)); 10788 in [3] (A: A012 (100 μM)); 3791 in assay [4] (A: A012 (100 μM)); 3151 in [5] (A: A012 (100 μM)); 10411 in [6] (A: A012 (100 μM)). Moreover, the “Fluorescence intensity B” value in assay [1] (setting [8]) was found to be 1135; in assay [2] (setting [8]) it was 1333; in assay [3] (setting [8]), 4083; in [4] (setting [8]) it was 1206; in assay [5] (setting [8]) it was 2269; in assay [6] (setting [8]), 5028. Moreover, the EC50 with eNOS promoter came to 1.2 µM. Moreover, the “labeling of protein duplicates on the microarray” value in [7] is “readily discernible”.
Consider `C=CC1=C(C)c2cc3[nH]c(cc4nc(cc5[nH]c(cc1n2)c(C)c5CCC(=O)O)C(CCC(=O)O)=C4C)c(C)c3C=C` [PPIX, protoporphyrin IX], for which the IC50 on human Hexahis-HEBP1 (setting [9]) came out at 13 µM.
In the case of hemin, the 50% inhibitory concentration (IC50) on human Hexahis-HEBP1 (setting [9]) was 3 µM; on human Hexahis-HEBP1 (HEBP1 500 nM, DMSO-control, hemin 0.1-10 μM, read-out: IC50 of the hemin binding curve, DMSO-control), 1.1 µM. Also, the “potency of hemin relative to PPIX” value at human Hexahis-HEBP1 (from IC50 values) worked out at 10 times.
Consider `O=C(CCCC[C@@H]1SC[C@@H]2NC(=O)N[C@@H]21)NCCCCCC(=O)NCCOCCOc1ccc(C(=O)N[C@@H]2CCCc3ccccc3C2)cc1` [A013], for which the EC50 in the assay on eNOS promoter is more than 10 µM. Moreover, the “labeling of protein duplicates on the microarray” value in [7] is “no binding of the substance to the proteins”.
